Source: US20090137549A1, “Novel compounds useful for the treatment of degenerative & inflamatory diseases” (priority 2006, published 2009)

Target: PDE1A (Homo sapiens, UniProt P54750)
Experiment: PDE1A dose response, Cyclic Nucleotide Phosphodiesterase Assay Kit from Biomol (colorimetric)
Type: biochemical
Details: purified PDE1A enzyme, 100 μM cAMP
Source text: For the dose response and further screening, we used the Cyclic Nucleotide
Phosphodiesterase Assay Kit from Biomol, a colorimetric, non-radioactive assay. The basis for the assay is the cleavage of cAMP by PDE1A. The 5′AMP is further cleaved into the nucleoside and phosphate by the enzyme 5′-nucleotidase (catnr KI-307). The phosphate released due to enzymatic cleavage is quantified using BIOMOL GREEN™ reagent (catnr AK-111) in a modified Malachite Green assay^1,2. A PDE1A inhibitor will result in a decrease of the signal.
For the enzymatic reaction a mix of 25 μL with purified PDE1A enzyme, 100 μM cAMP, 5′Nucleotidase and the compound is made in a clear 384-plate. The reaction buffer is Tris 20 mM pH 7.4, 4 μg/mL calmodulin, 3 mM MgCl2, 1.5 mM CaCl2, 0.2 mg/mL BSA and 0.001% Brij-35. After an incubation of 45 minutes at 37° C., the reaction is stopped by the addition of 50 μL BIOMOL GREEN™ reagent. After 30 minutes incubation at room temperature, the readout is performed on the Envision (absorption at 615 nm).
All compounds are tested in duplicate starting from […] followed by a 1/3 serial dilution, 8 points (20 μM-6.67 μM-2.22 μM-740 nM-247 nM-82 nM-27 nM-9 nM) in a final concentration of 1% DMSO. As the positive dose response control compound Vardenafil is used. For the calculation of z′ and PIN values 10 μM Vardenafil is used as positive control (100% inhibition) and 1% DMSO as negative control (0% inhibition).
The following compounds have been or can be prepared according to the synthetic methods described above. For the purpose of Table 7 below, PDE1A activity of each compound, which can be determined using the assay methods described herein, is expressed as follows: […]

Row | IC50 [nM] | SMILES
1 | 1 to 100 | Cc1nn(C(C)(C)C)c2nc(C3CN(C(=O)Nc4ccc5c(c4)OCO5)C3)[nH]c(=O)c12 [Example 1, N-(Benzo[d][1,3]dioxol-5-yl)-3-(1-tert-butyl-3-methyl-4-oxo-4,5-dihydro-1H-pyrazolo[3,4-d]pyrimidin-6-yl)azetidine-1-carboxamide]
2 | 1 to 100 | CC(C)N1CCN(c2ccc(NC(=O)N3CC(c4nc5c(cnn5C5CCCCC5)c(=O)[nH]4)C3)cc2)CC1 [Example 2, 3-(1-Cyclohexyl-4-oxo-4,5-dihydro-1H-pyrazolo[3,4-d]pyrimidin-6-yl)-N-(4-(4-isopropylpiperazin-1-yl)phenyl)azetidine-1-carboxamide]
3 | 1 to 100 | CN1CCN(c2ccc(NC(=O)N3CC(c4nc5c(cnn5C5CCCCC5)c(=O)[nH]4)C3)cc2)CC1 [Example 3, 3-(1-cyclohexyl-4-oxo-4,5-dihydro-1H-pyrazolo[3,4-d]pyrimidin-6-yl)-N-(4-(4-methylpiperazin-1-yl)phenyl)azetidine-1-carboxamide]
4 | 1 to 100 | Cc1ccc(NC(=O)N2CC(c3nc4c(cnn4C4CCCCC4)c(=O)[nH]3)C2)cc1C [Example 4, 3-(1-cyclohexyl-4-oxo-4,5-dihydro-1H-pyrazolo[3,4-d]pyrimidin-6-yl)-N-(3,4-dimethylphenyl)azetidine-1-carboxamide]
5 | 1 to 100 | O=C(NCC1CCCCC1)N1CC(c2nc3c(cnn3C3CCCCC3)c(=O)[nH]2)C1 [Example 5, 3-(1-cyclohexyl-4-oxo-4,5-dihydro-1H-pyrazolo[3,4-d]pyrimidin-6-yl)-N-(cyclohexylmethyl)azetidine-1-carboxamide]
6 | 1 to 100 | Cc1nn(C(C)(C)C)c2nc(C3CN(C(=O)Nc4ccccc4)C3)[nH]c(=O)c12 [Example 6, 3-(1-tert-butyl-3-methyl-4-oxo-4,5-dihydro-1H-pyrazolo[3,4-d]pyrimidin-6-yl)-N-phenylazetidine-1-carboxamide]
7 | 1 to 100 | CN(C)c1cccc(NC(=O)N2CC(c3nc4c(cnn4C4CCCCC4)c(=O)[nH]3)C2)c1 [Example 7, 3-(1-cyclohexyl-4-oxo-4,5-dihydro-1H-pyrazolo[3,4-d]pyrimidin-6-yl)-N-(3-(dimethylamino)phenyl)azetidine-1-carboxamide]
8 | 1 to 100 | O=C(Nc1cccc(Cl)c1)N1CC(c2nc3c(cnn3C3CCCCC3)c(=O)[nH]2)C1 [Example 8, N-(3-chlorophenyl)-3-(1-cyclohexyl-4-oxo-4,5-dihydro-1H-pyrazolo[3,4-d]pyrimidin-6-yl)azetidine-1-carboxamide]
9 | 1 to 100 | CN(C)c1ccc(NC(=O)N2CC(c3nc4c(cnn4C4CCCCC4)c(=O)[nH]3)C2)cc1 [Example 9, 3-(1-cyclohexyl-4-oxo-4,5-dihydro-1H-pyrazolo[3,4-d]pyrimidin-6-yl)-N-(4-(dimethylamino)phenyl)azetidine-1-carboxamide]
10 | 1 to 100 | O=C(Nc1ccc(N2CCOCC2)cc1)N1CC(c2nc3c(cnn3C3CCCCC3)c(=O)[nH]2)C1 [Example 10, 3-(1-cyclohexyl-4-oxo-4,5-dihydro-1H-pyrazolo[3,4-d]pyrimidin-6-yl)-N-(4-morpholinophenyl)azetidine-1-carboxamide]
11 | 1 to 100 | O=C(Nc1ccccc1)N1CC(c2nc3c(cnn3C3CCCCC3)c(=O)[nH]2)C1 [Example 11, 3-(1-cyclohexyl-4-oxo-4,5-dihydro-1H-pyrazolo[3,4-d]pyrimidin-6-yl)-N-phenylazetidine-1-carboxamide]
12 | 1 to 100 | Cc1nn(C(C)(C)C)c2nc(C3CN(C(=O)Nc4ccc(F)cc4)C3)[nH]c(=O)c12 [Example 12, 3-(1-tert-butyl-3-methyl-4-oxo-4,5-dihydro-1H-pyrazolo[3,4-d]pyrimidin-6-yl)-N-(4-fluorophenyl)azetidine-1-carboxamide]
13 | 1 to 100 | COc1ccc(NC(=O)N2CC(c3nc4c(cnn4C4CCCCC4)c(=O)[nH]3)C2)cc1 [Example 13, 3-(1-cyclohexyl-4-oxo-4,5-dihydro-1H-pyrazolo[3,4-d]pyrimidin-6-yl)-N-(4-methoxyphenyl)azetidine-1-carboxamide]
14 | 1 to 100 | Cc1nn(C2CCCCC2)c2nc(C3CN(C(=O)Nc4ccccc4)C3)[nH]c(=O)c12 [Example 14, 3-(1-cyclohexyl-3-methyl-4-oxo-4,5-dihydro-1H-pyrazolo[3,4-d]pyrimidin-6-yl)-N-phenylazetidine-1-carboxamide]
15 | 1 to 100 | Cc1nn(C(C)(C)C)c2nc(C3CN(C(=O)NC4CCCCC4)C3)[nH]c(=O)c12 [Example 15, 3-(1-tert-butyl-3-methyl-4-oxo-4,5-dihydro-1H-pyrazolo[3,4-d]pyrimidin-6-yl)-N-cyclohexylazetidine-1-carboxamide]
16 | 1 to 100 | CC(C)(C)n1ncc2c(=O)[nH]c(C3CN(C(=O)Nc4ccc(F)cc4)C3)nc21 [Example 16, 3-(1-tert-butyl-4-oxo-4,5-dihydro-1H-pyrazolo[3,4-d]pyrimidin-6-yl)-N-(4-fluorophenyl)azetidine-1-carboxamide]
17 | 1 to 100 | Cc1nn(C(C)(C)C)c2nc(C3CN(C(=O)NCc4ccc(F)cc4)C3)[nH]c(=O)c12 [Example 17, 3-(1-tert-butyl-3-methyl-4-oxo-4,5-dihydro-1H-pyrazolo[3,4-d]pyrimidin-6-yl)-N-(4-fluorobenzyl)azetidine-1-carboxamide]
18 | 1 to 100 | CC(C)c1ccc(NC(=O)N2CC(c3nc4c(cnn4C4CCCCC4)c(=O)[nH]3)C2)cc1 [Example 18, 3-(1-cyclohexyl-4-oxo-4,5-dihydro-1H-pyrazolo[3,4-d]pyrimidin-6-yl)-N-(4-isopropylphenyl)azetidine-1-carboxamide]
19 | 1 to 100 | O=C(Nc1ccc(F)cc1)N1CC(c2nc3c(cnn3C3CCCCC3)c(=O)[nH]2)C1 [Example 19, 3-(1-cyclohexyl-4-oxo-4,5-dihydro-1H-pyrazolo[3,4-d]pyrimidin-6-yl)-N-(4-fluorophenyl)azetidine-1-carboxamide]
20 | 1 to 100 | O=C(Nc1ccc(F)c(F)c1)N1CC(c2nc3c(cnn3C3CCCCC3)c(=O)[nH]2)C1 [Example 20, 3-(1-cyclohexyl-4-oxo-4,5-dihydro-1H-pyrazolo[3,4-d]pyrimidin-6-yl)-N-(3,4-difluorophenyl)azetidine-1-carboxamide]
21 | 1 to 100 | Cc1nn(C2CCCCC2)c2nc(C3CN(C(=O)Nc4ccc(F)cc4)C3)[nH]c(=O)c12 [Example 21, 3-(1-cyclohexyl-3-methyl-4-oxo-4,5-dihydro-1H-pyrazolo[3,4-d]pyrimidin-6-yl)-N-(4-fluorophenyl)azetidine-1-carboxamide]
22 | 1 to 100 | Cc1nn(C(C)(C)C)c2nc(C3CN(C(=O)NCc4ccccc4)C3)[nH]c(=O)c12 [Example 22, N-benzyl-3-(1-tert-butyl-3-methyl-4-oxo-4,5-dihydro-1H-pyrazolo[3,4-d]pyrimidin-6-yl)azetidine-1-carboxamide]
23 | 1 to 100 | O=C(NC1CCCCC1)N1CC(c2nc3c(cnn3C3CCCCC3)c(=O)[nH]2)C1 [Example 23, N-cyclohexyl-3-(1-cyclohexyl-4-oxo-4,5-dihydro-1H-pyrazolo[3,4-d]pyrimidin-6-yl)azetidine-1-carboxamide]
24 | 1 to 100 | Cc1nn(C2CCCCC2)c2nc(C3CN(C(=O)NCc4ccccc4)C3)[nH]c(=O)c12 [Example 24, N-benzyl-3-(1-cyclohexyl-3-methyl-4-oxo-4,5-dihydro-1H-pyrazolo[3,4-d]pyrimidin-6-yl)azetidine-1-carboxamide]
